Measured values: patent US20070276022A1, “Optically Active Carboxamides” (priority 2003, published 2007)

Tested on: Podosphaera leucotricha
Experiment: Podosphaera test (apple)/protective
Assay type: in vivo
Settings: protective, 12.5 g/ha, evaluation 10 days after inoculation
Description: (§1) For the production of an appropriate active compound preparation 1 part by weight of active compound is mixed with the given amount of solvent and emulsifier and the concentrate is diluted to the desired concentration with water.
For the investigation for the protective activity young plants are sprayed with the active compound preparation in the amount specified. After drying of the spray coating the plants are inoculated with an aqueous spore suspension of the apple mildew pathogen Podosphaera leucotricha. The plants are then placed in a greenhouse at ca. 23° C. and a relative humidity of ca. 70%.
(§2) Evaluation is carried out 10 days after the inoculation. A level of activity of 0% corresponds to the level of activity of the control, whereas a level of activity of 100% means that no infestation is observed.

SMILES | Level of activity in % [%]
CC(C)C[C@H](C)c1ccccc1NC(=O)c1cn(C)cc1C(F)(F)F [drawing 41] | 98
CC(C)C[C@@H](C)c1ccccc1NC(=O)c1cn(C)cc1C(F)(F)F [drawing 42] | 28

Same assay, conditions: protective, 50 g/ha, evaluation 10 days after inoculation

SMILES | Level of activity in % [%]
CC(C)C[C@H](C)c1ccccc1NC(=O)c1ccccc1C(F)(F)F [drawing 39] | 100
CC(C)C[C@@H](C)c1ccccc1NC(=O)c1ccccc1C(F)(F)F [drawing 40] | 20

Tested on: Venturia inaequalis
Experiment: Venturia test (apple)/protective
Assay type: in vivo
Settings: protective, 3.125 g/ha, evaluation 10 days after inoculation
Description: as §1
For the investigation of the protective activity young plants are sprayed with the active compound preparation in the amount specified. After drying of the spray coating the plants are inoculated with an aqueous conidial suspension of the apple scab pathogen Venturia inaequalis then left for 1 day in an incubator at ca. 20° C. and a relative humidity of 100%.
The plants are then placed in a greenhouse at ca. 21° C. and a relative humidity of ca. 90%.
as §2

SMILES | Level of activity in % [%]
CC(C)C[C@H](C)c1sccc1NC(=O)c1cn(C)nc1C(F)(F)F [drawing 65] | 100
CC(C)C[C@@H](C)c1sccc1NC(=O)c1cn(C)nc1C(F)(F)F [drawing 66] | 7

Same assay, conditions: protective, 25 g/ha, evaluation 10 days after inoculation

SMILES | Level of activity in % [%]
Cc1nn(C)c(F)c1C(=O)Nc1ccccc1[C@@H](C)CC(C)C [drawing 57] | 100
Cc1nn(C)c(F)c1C(=O)Nc1ccccc1[C@H](C)CC(C)C [drawing 58] | 21
Cc1nn(C)c(F)c1C(=O)Nc1ccccc1[C@@H](C)CC(C)(C)C [drawing 59] | 100
Cc1nn(C)c(F)c1C(=O)Nc1ccccc1[C@H](C)CC(C)(C)C [drawing 60] | 0
CC(C)C[C@H](C)c1ccccc1NC(=O)c1ccccc1C(F)(F)F [drawing 61] | 100
CC(C)C[C@@H](C)c1ccccc1NC(=O)c1ccccc1C(F)(F)F [drawing 62] | 0
CC(C)C[C@H](C)c1ccccc1NC(=O)c1ccccc1I [drawing 63] | 100
CC(C)C[C@@H](C)c1ccccc1NC(=O)c1ccccc1I [drawing 64] | 16

Same assay, conditions: protective, 50 g/ha, evaluation 10 days after inoculation

SMILES | Level of activity in % [%]
CC(C)C[C@H](C)c1ccccc1NC(=O)c1cn(C)cc1C(F)(F)F [drawing 67] | 100
CC(C)C[C@@H](C)c1ccccc1NC(=O)c1cn(C)cc1C(F)(F)F [drawing 68] | 20

Tested on: Alternaria solani
Experiment: Alternaria test (tomato)/protective
Assay type: in vivo
Settings: protective, 50 g/ha, evaluation 3 days after inoculation
Description: as §1
For the investigation of the protective activity young plants are sprayed with the active compound preparation in the amount specified. After drying of the spray coating the plants are inoculated with an aqueous spore suspension of Alternaria solani. The plants are then placed in an incubator at ca. 20° C. and a relative humidity of 100%.
Evaluation is carried out 3 days after the inoculation. A level of activity of 0% corresponds the level of activity of the control, whereas a level of activity of 100% means that no infestation is observed.

SMILES | Level of activity in % [%]
CC(C)C[C@H](C)c1ccccc1NC(=O)c1cn(C)cc1C(F)(F)F [drawing 79] | 83
CC(C)C[C@@H](C)c1ccccc1NC(=O)c1cn(C)cc1C(F)(F)F [drawing 80] | 30

Tested on: Sphaerotheca fuliginea
Experiment: Sphaerotheca test (cucumber)/protective
Assay type: in vivo
Settings: protective, 3.125 g/ha, evaluation 7 days after inoculation
Description: as §1
For the investigation of the protective activity young cucumber plants are sprayed with the active compound preparation in the amount specified. After drying of the spray coating the plants are inoculated with an aqueous spore suspension of Sphaerotheca fuliginea. The plants are then placed in a greenhouse at ca. 23° C. and a relative humidity of ca. 70%.
Evaluation is carried out 7 days after the inoculation. A level of activity of 0% corresponds to the level of activity of the control, whereas a level of activity of 100% means that no infestation is observed.

SMILES | Level of activity in % [%]
CC(C)C[C@H](C)c1sccc1NC(=O)c1cn(C)nc1C(F)(F)F [drawing 53] | 98
CC(C)C[C@@H](C)c1sccc1NC(=O)c1cn(C)nc1C(F)(F)F [drawing 54] | 35

Same assay, conditions: protective, 25 g/ha, evaluation 7 days after inoculation

SMILES | Level of activity in % [%]
Cc1nn(C)c(F)c1C(=O)Nc1ccccc1[C@H](C)CC(C)C [drawing 44] | 7
Cc1nn(C)c(F)c1C(=O)Nc1ccccc1[C@@H](C)CC(C)(C)C [drawing 45] | 94
Cc1nn(C)c(F)c1C(=O)Nc1ccccc1[C@H](C)CC(C)(C)C [drawing 46] | 0
Cc1nn(C)c(F)c1C(=O)Nc1ccccc1[C@@H](C)CC(C)C [drawing 47] | 96
CC(C)C[C@H](C)c1ccccc1NC(=O)c1ccccc1I [drawing 51] | 85
CC(C)C[C@@H](C)c1ccccc1NC(=O)c1ccccc1I [drawing 52] | 15

Same assay, conditions: protective, 50 g/ha, evaluation 7 days after inoculation

SMILES | Level of activity in % [%]
CC(C)C[C@H](C)c1ccccc1NC(=O)c1cn(C)cc1C(F)(F)F [drawing 55] | 91
CC(C)C[C@@H](C)c1ccccc1NC(=O)c1cn(C)cc1C(F)(F)F [drawing 56] | 23

Tested on: Botrytis cinera
Experiment: Botrytis test (bean)/protective
Assay type: in vivo
Settings: protective, 62.5 g/ha, evaluation 2 days after inoculation
Description: as §1
For the investigation the protective activity young plants are sprayed with the active compound preparation in the amount specified. After drying of the spray coating 2 small pieces of agar coated with Botrytis cinera are placed on each leaf. The inoculated plants are then placed in a darkened room at ca 20° C. and a relative humidity of 100%.
The size of the infestation spots on the leaves are evaluated 2 days after the inoculation. A level of activity of 0% corresponds to the level of activity of the control, whereas a level of activity of 100% means that no infestation is observed.

SMILES | Level of activity in % [%]
CC(C)C[C@H](C)c1ccccc1NC(=O)c1cn(C)cc1C(F)(F)F [drawing 77] | 100
CC(C)C[C@@H](C)c1ccccc1NC(=O)c1cn(C)cc1C(F)(F)F [drawing 78] | 50

Same assay, conditions: protective, 250 g/ha, evaluation 2 days after inoculation

SMILES | Level of activity in % [%]
Cc1nn(C)c(F)c1C(=O)Nc1ccccc1[C@@H](C)CC(C)C [drawing 69] | 100
Cc1nn(C)c(F)c1C(=O)Nc1ccccc1[C@H](C)CC(C)C [drawing 70] | 29
Cc1nn(C)c(F)c1C(=O)Nc1ccccc1[C@@H](C)CC(C)(C)C [drawing 71] | 100
Cc1nn(C)c(F)c1C(=O)Nc1ccccc1[C@H](C)CC(C)(C)C [drawing 72] | 14
CC(C)C[C@H](C)c1ccccc1NC(=O)c1ccccc1C(F)(F)F [drawing 73] | 90
CC(C)C[C@@H](C)c1ccccc1NC(=O)c1ccccc1C(F)(F)F [drawing 74] | 18
CC(C)C[C@H](C)c1ccccc1NC(=O)c1ccccc1I [drawing 75] | 86
CC(C)C[C@@H](C)c1ccccc1NC(=O)c1ccccc1I [drawing 76] | 0
